The values that follow come from US7875647B2, “Heteroaryl-pyrazole derivatives as cannabinoid CB1 receptor antagonists” (Green Cross Corporation, priority 2006, dated 2011).

The structures appear in SMILES notation.

The assay addresses T1, Cannabinoid-1 receptor (CB1R) (Rattus norvegicus, UniProt P20272).
T1 construct: The tissue obtained from the brain of SD rats was homogenized; from tissue; host or cells: brain of SD rats (membrane pellet of the homogenate)
Nature of the assay: Cannabinoid-1 receptor (CB1R) binding affinity assay ([3H]CP-55940, rat CB-1 receptor binding protocol). The settings on record: brain tissue of SD rats, [3H]CP-55940, 30° C. 60 min; read-out: IC50.

T1 sequence (P20272 whole entry): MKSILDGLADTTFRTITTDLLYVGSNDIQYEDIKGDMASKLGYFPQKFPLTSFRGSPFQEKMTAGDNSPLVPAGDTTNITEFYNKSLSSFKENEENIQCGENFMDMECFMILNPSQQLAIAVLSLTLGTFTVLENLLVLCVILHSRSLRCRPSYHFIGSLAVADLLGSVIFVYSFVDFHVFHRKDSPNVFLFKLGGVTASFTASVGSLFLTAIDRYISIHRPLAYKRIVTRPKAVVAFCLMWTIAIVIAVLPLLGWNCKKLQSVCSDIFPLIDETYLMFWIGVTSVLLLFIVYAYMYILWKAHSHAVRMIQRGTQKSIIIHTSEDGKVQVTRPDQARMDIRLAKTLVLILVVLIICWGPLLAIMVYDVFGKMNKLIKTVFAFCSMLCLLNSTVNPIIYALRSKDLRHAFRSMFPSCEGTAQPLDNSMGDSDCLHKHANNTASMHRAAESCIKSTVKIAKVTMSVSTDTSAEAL

Regarding `Cc1c(-c2nnc(C3CCC3)s2)nn(-c2ccccc2Cl)c1-c1ccc(Br)cc1` [Example 427, 2-(5-(4-bromophenyl)-1-(2-chlorophenyl)-4-methyl-1H-pyrazol-3-yl)-5-cyclobutyl-1,3,4-thiadiazole], the IC50 (commonly the concentration that inhibits the measured activity by half) turned out to be 0.0296 µM.
For `Cc1c(-c2nnc(C3CCC3)s2)nn(-c2ccccc2Cl)c1-c1ccc(Cl)cc1` [Example 409, 2-(1-(2-chlorophenyl)-5-(4-chlorophenyl)-4-methyl-1H-pyrazol-3-yl)-5-cyclobutyl-1,3,4-thiadiazole] the value was 0.0581 µM; for `CC(=O)OCc1c(-c2nnc(C(C)(C)C)s2)nn(-c2ccc(Cl)cc2Cl)c1-c1ccc(Cl)cc1` [Example 521, (3-(5-tert-butyl-1,3,4-thiadiazol-2-yl)-5-(4-chlorophenyl)-1-(2,4-dichlorophenyl)-1H-pyrazol-4-yl)methyl acetate], 0.0167 µM; for `CCn1nc(-c2nn(-c3ccc(Cl)cc3Cl)c(-c3ccc(Cl)cc3)c2C)nc1C1CC1` [Example 629, 3-(5-(4-chlorophenyl)-1-(2,4-dichlorophenyl)-4-methyl-1H-pyrazol-3-yl)-5-cyclopropyl-1-ethyl-1H-1,2,4-triazole], 0.301 µM.
`Cc1c(-c2nnc(C(C)c3ccccc3)s2)nn(-c2ccc(Cl)cc2Cl)c1-c1ccc(Cl)cc1` (stereo not shown) [Example 381, 2-(5-(4-chlorophenyl)-1-(2,4-dichlorophenyl)-4-methyl-1H-pyrazol-3-yl)-5-(1-phenylethyl)-1,3,4-thiadiazole]: the IC50 is 0.0112 µM.
Consider `CCCc1c(-c2nnc(C3(C(F)(F)F)CC3)s2)nn(-c2ccc(Cl)cc2Cl)c1-c1ccc(Cl)cc1` [Example 499, 2-(5-(4-chlorophenyl)-1-(2,4-dichlorophenyl)-4-propyl-1H-pyrazol-3-yl)-5-(1-(trifluoromethyl)cyclopropyl)-1,3,4-thiadiazole], for which the IC50 stood at 0.021 µM.
As for `CCc1c(-c2nnc(C(C)(C)C)s2)nn(-c2ccc(Cl)cc2Cl)c1-c1ccc(Br)cc1` [Example 377, 2-(5-(4-Bromophenyl)-1-(2,4-dichlorophenyl)-4-ethyl-1H-pyrazol-3-yl)-5-tert-butyl-1,3,4-thiadiazole], the IC50 was 0.00957 µM.
In the case of `CCC(C)(C)c1nnc(-c2nn(-c3ccc(Cl)cc3Cl)c(-c3cccc(Cl)c3)c2C)s1` [Example 439, 2-(5-(3-Chlorophenyl)-1-(2,4-dichlorophenyl)-4-methyl-1H-pyrazol-3-yl)-5-tert-pentyl-1,3,4-thiadiazole] it was 0.263 µM; in that of `Cc1c(-c2nnc(C3CC4CCC3C4)o2)nn(-c2ccc(Cl)cc2Cl)c1-c1ccc(Cl)cc1` (stereo not shown) [Example 52, 2-(bicyclo[2.2.1]heptan-2-yl)-5-(5-(4-chlorophenyl)-1-(2,4-dichlorophenyl)-4-methyl-1H-pyrazol-3-yl)-1,3,4-oxadiazole], 0.0127 µM.
As for `Cc1c(-c2nnc(C3CCOCC3)s2)nn(-c2ccc(Cl)cc2Cl)c1-c1ccc(Cl)cc1` [Example 358, 2-(5-(4-Chlorophenyl)-1-(2,4-dichlorophenyl)-4-methyl-1H-pyrazol-3-yl)-5-(tetrahydro-2H-pyran-4-yl)-1,3,4-thiadiazole], the IC50 worked out at 0.0543 µM.
For `CC(O)c1c(-c2nnc(C(C)(C)C)s2)nn(-c2ccc(Cl)cc2Cl)c1-c1ccc(Br)cc1` (stereo not shown) [Example 528, 1-(5-(4-bromophenyl)-3-(5-tert-butyl-1,3,4-thiadiazol-2-yl)-1-(2,4-dichlorophenyl)-1H-pyrazol-4-yl)ethanol] the value was 0.00647 µM.
For `CC(C)(C)c1nnc(-c2nn(-c3ccc(Cl)cc3Cl)c(-c3ccc(Br)cc3)c2CO)o1` [Example 200, (5-(4-bromophenyl)-3-(5-tert-butyl-1,3,4-oxadiazol-2-yl)-1-(2,4-dichlorophenyl)-1H-pyrazol-4-yl)methanol] the value was 0.00635 µM; for `Cc1c(-c2nnc(CC3CCCCC3)o2)nn(-c2ccc(Cl)cc2Cl)c1-c1ccc(Cl)cc1` [Example 24, 2-(5-(4-Chlorophenyl)-1-(2,4-dichlorophenyl)-4-methyl-1H-pyrazol-3-yl)-5-(cyclohexylmethyl)-1,3,4-oxadiazole], 0.0227 µM.
For `FC(F)c1c(-c2nnc(C3(c4ccc(Cl)cc4)CC3)o2)nn(-c2ccc(Cl)cc2Cl)c1-c1ccc(Cl)cc1` [Example 225, 2-(5-(4-chlorophenyl)-1-(2,4-dichlorophenyl)-4-(difluoromethyl)-1H-pyrazol-3-yl)-5-(1-(4-chlorophenyl)cyclopropyl)-1,3,4-oxadiazole], the IC50 was 0.0121 µM.
In the case of `COc1ccc(-c2c(C)c(-c3nnc(C4(c5ccc(OC)cc5)CC4)o3)nn2-c2ccc(Cl)cc2Cl)cc1` [Example 172, 2-(1-(2,4-dichlorophenyl)-5-(4-methoxyphenyl)-4-methyl-1H-pyrazol-3-yl)-5-(1-(4-methoxyphenyl)cyclopropyl)-1,3,4-oxadiazole] it was 0.0179 µM; in that of `Cc1c(-c2nnc([C@H]3C[C@H]3C(=O)N3CCCCC3)o2)nn(-c2ccc(Cl)cc2Cl)c1-c1ccc(Cl)cc1` [Example 242, ((1R,2S)-2-(5-(5-(4-chlorophenyl)-1-(2,4-dichlorophenyl)-4-methyl-1H-pyrazol-3-yl)-1,3,4-oxadiazol-2-yl)cyclopropyl)(piperidin-1-yl)methanone], 0.0673 µM.
In the case of `Clc1ccc(-c2c(Cn3cncn3)c(-c3nnc(C4CCCCC4)o3)nn2-c2ccc(Cl)cc2Cl)cc1` [Example 316, 2-(4-((1H-1,2,4-triazol-1-yl)methyl)-5-(4-chlorophenyl)-1-(2,4-dichlorophenyl)-1H-pyrazol-3-yl)-5-cyclohexyl-1,3,4-oxadiazole] it was 0.00342 µM; in that of `Cc1c(-c2nnn(Cc3ccncc3)n2)nn(-c2ccc(Cl)cc2Cl)c1-c1ccc(Cl)cc1` [Example 588, 4-((5-(5-(4-Chlorophenyl)-1-(2,4-dichlorophenyl)-4-methyl-1H-pyrazol-3-yl)-2H-tetrazol-2-yl)methyl)pyridine], 0.135 µM; in that of `CC(C)(C)c1nnc(-c2nn(-c3ccc(Cl)cc3Cl)c(-c3ccc(Br)cc3)c2CF)o1` [Example 222, 2-(5-(4-bromophenyl)-1-(2,4-dichlorophenyl)-4-(fluoromethyl)-1H-pyrazol-3-yl)-5-tert-butyl-1,3,4-oxadiazole], 0.00799 µM.
On to `Cc1c(-c2n[nH]c(-c3ccccc3)n2)nn(-c2ccc(Cl)cc2Cl)c1-c1ccc(Cl)cc1` [Example 613, 3-(5-(4-Chlorophenyl)-1-(2,4-dichlorophenyl)-4-methyl-1H-pyrazol-3-yl)-5-phenyl-1H-1,2,4-triazole], for which the IC50 was 0.476 µM.
In the case of `Cc1c(-c2nnc(C3(c4ccc(Cl)cc4)CCC3)o2)nn(-c2cc(Cl)ccc2Cl)c1-c1ccc(Cl)cc1` [Example 168, 2-(5-(4-chlorophenyl)-1-(2,5-dichlorophenyl)-4-methyl-1H-pyrazol-3-yl)-5-(1-(4-chlorophenyl)cyclobutyl)-1,3,4-oxadiazole], the IC50 turned out to be 0.2 µM.
In the case of `CCn1nc(-c2nn(-c3ccc(Cl)cc3Cl)c(-c3ccc(Cl)cc3)c2C)nc1C(C)C` [Example 635, 3-(5-(4-chlorophenyl)-1-(2,4-dichlorophenyl)-4-methyl-1H-pyrazol-3-yl)-5-isopropyl-1-ethyl-1H-1,2,4-triazole] it was 0.712 µM.
